Each molecule was assayed on 661W or C6 cells (assay: MTT assay, protection against calcium-ionophore A23187). Settings: 1 μM ionophore, 24 h.
Format: cell-based
Description: The compound 3-(4,5-Dimethylthiazol-2-yl)-2,5-diphenyltetrazolium bromide (MTT) is a tetrazolium ion that is reduced to a blue formazan dye via several families of NAD(P)H-dependent oxidoreductases. Formation of the formazan dye from MTT or other related tetrazolium dyes are commonly used as a viability assay even though, in fact, the assay is a metabolic capacity assay.
In this assay, 661W or C6 cells were maintained in DMEM supplemented with 10% FBS. 100 μL of 70,000 cells/mL cells were seeded into each well of 96 well plates using DMEM supplemented with 5% FBS. Cells were then allowed to grow to confluency for 48 hours. The compounds of the invention were added in 2 μL media and calcium-ionophore A23187 was then added in 1 μL for a final concentration of 1 μM and after 24 h, 20 μL of […] MTT were added to each well and the cells were incubated for another 4 h after which 100 μL of 1% SDS in 0.01M aqueous HCl were added to each well and the plates were incubated overnight. Absorbance was measured at […] (background correction). The 1 μM ionophore A23187 caused about 50% loss in MTT signal at 24 h. Protection was calculated as the increase in absorbance of treatment groups normalized to the vehicle control.

| SMILES | loss in MTT signal |
| --- | --- |
| CNc1ccc2oc(C[C@H]3O[C@@]4(CC[C@H]3C)O[C@H]([C@H](C)C(=O)c3ccc[nH]3)[C@H](C)C[C@H]4C)nc2c1C(=O)O [Example A23187, reference compound] | about 50% |

Same assay, conditions: compound 800 pM; 1 μM A23187, 24 h

| SMILES | MTT, % protection |
| --- | --- |
| COc1cc(CC2(OC(=O)c3ccccc3)C(=O)N(CC(C)C)c3ccccc32)cc(OC)c1OC (stereo not drawn) [Example 49, 1-isobutyl-2-oxo-3-(3,4,5-trimethoxybenzyl)indolin-3-yl benzoate] | 78.3%, |
| COc1ccc(O)c(CC2(OC(=O)c3ccccc3)C(=O)N(CC(C)C)c3ccccc32)c1 (stereo not drawn) [Example 54, 3-(2-hydroxy-5-methoxybenzyl)-1-isobutyl-2-oxoindolin-3-yl benzoate] | 85.8%, |
| Cc1ccc2c(c1)C(O)(Cc1ccccn1)C(=O)N2CCc1ccccc1 (stereo not drawn) [Example 9, 3-hydroxy-5-methyl-1-phenethyl-3-(pyridin-2-ylmethyl)indolin-2-one] | 62.5%, |
| CCN1C(=O)C(Cc2ccc(OC)cc2O)(OC(=O)c2ccccc2)c2ccccc21 (stereo not drawn) [Example 57, 1-ethyl-3-(2-hydroxy-4-methoxybenzyl)-2-oxoindolin-3-yl benzoate] | 71%, |

Same assay, conditions: compound 1 nM; 1 μM A23187, 24 h

| SMILES | MTT, % protection |
| --- | --- |
| COc1ccc(CC2(OC(=O)c3ccccc3)C(=O)N(CCc3ccccc3)c3ccc(C)cc32)cc1OC (stereo not drawn) [Example 44, 3-(3,4-dimethoxybenzyl)-5-methyl-2-oxo-1-phenethylindolin-3-yl benzoate] | 72%, |
| CCCN1C(=O)C(Cc2ccc(OC)c(OC)c2)(OC(=O)c2ccccc2)c2cc(C)ccc21 (stereo not drawn) [Example 47, 3-(3,4-dimethoxybenzyl)-5-methyl-2-oxo-1-propylindolin-3-yl benzoate] | 21.8%, |
| CCN1C(=O)C(O)(Cc2ncccc2OC)c2cc(C)ccc21 (stereo not drawn) [Example 8, 1-ethyl-3-hydroxy-3-((3-methoxypyridin-2-yl)methyl)-5-methylindolin-2-one] | 65.9%, |
| COc1ccc(CC2(OC(=O)c3ccccc3)C(=O)N(CCC(C)C)c3ccccc32)cc1OC (stereo not drawn) [Example 45, 3-(3,4-dimethoxybenzyl)-1-isopentyl-2-oxoindolin-3-yl benzoate] | 63%, |
| CCCN1C(=O)C(O)(Cc2ccc(OC)cn2)c2cc(Cl)ccc21 (stereo not drawn) [Example 5, 5-chloro-3-hydroxy-3-((5-methoxypyridin-2-yl)methyl)-1-propylindolin-2-one] | 39.2%, |
| CCN1C(=O)C(O)(Cc2ccccn2)c2cc(Cl)ccc21 (stereo not drawn) [Example 10, 5-chloro-1-ethyl-3-hydroxy-3-(pyridin-2-ylmethyl)indolin-2-one] | 52.7%, |
| CCN1C(=O)C(Cc2cc(OC)ccc2O)(OC(=O)c2ccccc2)c2cc(C)ccc21 (stereo not drawn) [Example 60, 1-ethyl-3-(2-hydroxy-5-methoxybenzyl)-5-methyl-2-oxoindolin-3-yl benzoate] | 68.7%, |

Same assay, conditions: compound 100 nM; 1 μM A23187, 24 h

| SMILES | MTT, % protection |
| --- | --- |
| CC(C)CCN1C(=O)C(O)(CC(=O)c2c[nH]c3ccccc23)c2ccccc21 (stereo not drawn) [Example 21, 3-(2-(1H-indol-3-yl)-2-oxoethyl)-3-hydroxy-1-isopentylindolin-2-one] | 82.9%, |
| COc1cccc(C(=O)CC2(O)C(=O)N(CC(C)C)c3ccc(Cl)cc32)n1 (stereo not drawn) [Example 17, 5-chloro-3-hydroxy-1-isobutyl-3-(2-(6-methoxypyridin-2-yl)-2-oxoethyl)indolin-2-one] | 111%, |
| COc1cccc(C(=O)CC2(O)C(=O)N(CC(C)C)c3ccc(C)cc32)n1 (stereo not drawn) [Example 29, 3-hydroxy-1-isobutyl-3-(2-(6-methoxypyridin-2-yl)-2-oxoethyl)-5-methylindolin-2-one] | 98.9%, |
| CCCN1C(=O)C(Cc2ccc(OC)cc2O)(OC(=O)c2ccccc2)c2ccccc21 (stereo not drawn) [Example 52, 3-(2-hydroxy-4-methoxybenzyl)-2-oxo-1-propylindolin-3-yl benzoate] | 24%, |
| CCCN1C(=O)C(O)(Cc2cn(C(=O)c3ccccc3)c3ccccc23)c2cc(C)ccc21 (stereo not drawn) [Example 64, 3-((1-benzoyl-1H-indol-3-yl)methyl)-3-hydroxy-5-methyl-1-propylindolin-2-one] | 51.5%, |
| CCN1C(=O)C(Cc2cc(OC)c(OC)c(OC)c2)(OC(=O)c2ccccc2)c2cc(C)ccc21 (stereo not drawn) [Example 33, 1-ethyl-5-methyl-2-oxo-3-(3,4,5-trimethoxybenzyl)indolin-3-yl benzoate] | 50%, |
| CC(C)CN1C(=O)C(O)(CC(=O)c2ccccn2)c2cc(Cl)ccc21 (stereo not drawn) [Example 32, 5-chloro-3-hydroxy-1-isobutyl-3-(2-oxo-2-(pyridin-2-yl)ethyl)indolin-2-one] | 102%, |
| Cc1ccc2c(c1)C(O)(CC(=O)c1c[nH]c3ccccc13)C(=O)N2CCC(C)C (stereo not drawn) [Example 15, 3-(2-(1H-indol-3-yl)-2-oxoethyl)-3-hydroxy-1-isopentyl-5-methylindolin-2-one] | 108.5%, |
| CC(C)CN1C(=O)C(O)(CC(=O)c2ccccn2)c2ccccc21 (stereo not drawn) [Example 16, 3-hydroxy-1-isobutyl-3-(2-oxo-2-(pyridin-2-yl)ethyl)indolin-2-one] | 78.7%, |
| CCN1C(=O)C(O)(CC(=O)c2ccccn2)c2cc(Cl)ccc21 (stereo not drawn) [Example 19, 5-chloro-1-ethyl-3-hydroxy-3-(2-oxo-2-(pyridin-2-yl)ethyl)indolin-2-one] | 81.8%, |
| CC(C)CN1C(=O)C(O)(CC(=O)c2c[nH]c3ccccc23)c2ccccc21 (stereo not drawn) [Example 20, 3-(2-(1H-indol-3-yl)-2-oxoethyl)-3-hydroxy-1-isobutylindolin-2-one] | 59.5%, |
| COc1cc(CC2(OC(=O)c3ccccc3)C(=O)N(CC(C)C)c3ccc(C)cc32)cc(OC)c1OC (stereo not drawn) [Example 36, 1-isobutyl-5-methyl-2-oxo-3-(3,4,5-trimethoxybenzyl)indolin-3-yl benzoate] | 86.8%, |
| COc1cccc(C(=O)CC2(O)C(=O)N(CCN3CCCCC3)c3ccc(Cl)cc32)n1 (stereo not drawn) [Example 18, 5-chloro-3-hydroxy-3-(2-(6-methoxypyridin-2-yl)-2-oxoethyl)-1-(2-(piperidin-1-yl)ethyl)indolin-2-one] | 68.8%, |

Same assay, conditions: compound 1 μM; 1 μM A23187, 24 h

| SMILES | MTT, % protection |
| --- | --- |
| Cc1ccc2c(c1)C(O)(CC(=O)c1c[nH]c3ccccc13)C(=O)N2CCCN=[N+]=[N-] (stereo not drawn) [Example 27, 3-(2-(1H-indol-3-yl)-2-oxoethyl)-1-(3-azidopropyl)-3-hydroxy-5-methylindolin-2-one] | 66%, |
| CCN1C(=O)C(O)(Cc2ncccc2OC)c2cc(Cl)ccc21 (stereo not drawn) [Example 7, 5-chloro-1-ethyl-3-hydroxy-3-((3-methoxypyridin-2-yl)methyl)indolin-2-one] | 43.8%, |
| COc1ccc(CC2(O)C(=O)N(CCc3ccccc3)c3ccc(C)cc32)nc1 (stereo not drawn) [Example 11, 3-hydroxy-3-((5-methoxypyridin-2-yl)methyl)-5-methyl-1-phenethylindolin-2-one] | 35.7%, |
| COc1ccc(CC2(OC(=O)c3ccccc3)C(=O)N(CCC(C)C)c3ccc(C)cc32)cc1OC (stereo not drawn) [Example 46, 3-(3,4-dimethoxybenzyl)-1-isopentyl-5-methyl-2-oxoindolin-3-yl benzoate] | 82%, |
| Cc1ccc2c(c1)C(O)(Cc1ncccc1Br)C(=O)N2CCC(C)C (stereo not drawn) [Example 1, 3-((3-bromopyridin-2-yl)methyl)-3-hydroxy-1-isopentyl-5-methylindolin-2-one] | 12%, |

Source: patent US9079853B2, “Isatin compounds, compositions and methods for treatment of degenerative diseases and disorders” (MUSC FOUNDATION FOR RESEARCH DEVELOPMENT, priority 2013, dated 2015)
